Source: patent US20080039531A1, “Compositions, and kits comprising targeted aldehyde or acetal protease inhibitor compounds for treating muscle disorders” (priority 2005, published 2008)
Where “and” joins values, the source holds several entries; their conditions need not be identical. Equal entries are not always repeated. Where two headings read alike, the source gives them in different places.

How the values were obtained:
[1] = Conversion of CLA acetal to aldehyde using acid (HPLC); type: physicochemical; settings: 5 mg/mL in water
Method: Solutions of CLA diethyl acetal in water were prepared at a concentration of 5 mg/mL and the pH was adjusted to values shown in Table 8 using concentrated hydrochloric acid. Each solution was incubated at different times at room temperature. Samples were removed at each time point and quenched using basic phosphate buffer, yielding a final pH of 9. The quenched samples were analyzed using an Agilent 1100 HPLC system. The aldehyde was chromatographically separated from the acetal on a C18 reverse-phase HPLC column, using a linear gradient where the starting mobile phase was 0.1% trifluoroacetic acid in a 99:1 water:acetonitrile mixture and the final mobile phase was 0.1% trifluoroacetic acid in a 50:50 water:acetonitrile mixture. The absorbance at 220 nm was monitored, and the area of the peak corresponding to elution of the CLA diethyl acetal was computed.

[2] = Single-dose oral rat toxicology study of CLA acetal; type: in vivo, Sprague Dawley rats; settings: rats, oral gavage, 250, 1000, 2000 mg/kg, up to 24 hours after dosing
Method: Sprague Dawley rats were administered single doses of CLA acetal by oral gavage at 7-8 weeks of age. Each group received a single oral dose level of CLA acetal, ranging in amount from 0 to 2000 mg/kg. The vehicle consisted of Dulbecco's phosphate-buffered saline.

[3] = Uptake and conversion of CLA acetal in rat gastrocnemius muscle; type: in vivo
Method: This experiment was designed to measure the uptake of CLA acetal in rat gastrocnemius muscle and to detect conversion of CLA acetal to CLA as it occurs in rat muscle. […] At different times following administration of drug, each rat was sacrificed, the left and right gastrocnemius muscles were dissected from the rat, and the muscles were frozen by immersion in liquid nitrogen and storage in a −80° C. freezer.
The muscle tissues were thawed and homogenized using a blender.

[4] = Qualitative oral bioavailability of CLA acetal in the rat (plasma); settings: for Estimated Plasma Concentration of CLA acetal / Estimated Plasma Concentration of CLA aldehyde: rat plasma
Method: This experiment was designed to measure in a qualitative manner the oral bioavailability of CLA acetal in rats. Four Lewis strain normal male rats, 9 weeks of age were administered a single dose of 50 mg/kg of the acetate salt of the CLA acetal compound, using a single oral gavage. […] The blood samples were immediately centrifuged at 3000 rpm for 3-5 minutes to separate plasma from cells and the plasma and cells were frozen separately by immersion in liquid nitrogen and storage in a −20° C. freezer.
The aldehyde and acetal forms of CLA were then extracted from the plasma using a Bligh Dyer-type liquid phase extraction followed by solid-phase extraction using a reverse phase column. The relative amounts of CLA acetal and aldehyde were then measured using HPLC separation with mass spectrometric detection, using an electrospray ionization source and a Micromass Qtof detector.

porcine kidney calpain 2 = porcine kidney calpain 2 (Sus scrofa, UniProt I3LQD3); experiment: Enzymatic calpain assay with fluorogenic substrate; type: biochemical; settings: porcine kidney calpain 2, 37° C., 10 mM calcium chloride
Source text: The α-carbon stereocenter adjacent to the aldehyde group of CLA can be prepared in a “natural” L or “unnatural” D configuration. It is known however that enolization of such aldehydes can easily occur during synthesis, storage, or administration of such peptide aldehydes to patients, with the result that the α-carbon stereocenter undergoes racemization. To investigate the relative biological activity of the optical isomers of CLA, the pure form of both the L-argininal diethyl […] diethyl acetal forms of CLA were prepared via the method described in Example 11 below using both L and D enantiomers of the […] starting materials. […] Slopes were calculated for the initial phase of each reaction and the ratios of velocities for each compound concentration (Vi) to the uninihibited reaction velocity (V0) were calculated, plotted, and fitted to a rectangular hyperbola using the program Kaleidagraph (Synergy software). […] An increase in enzyme activity appears to occur at intermediate concentrations of the D-isomer (Panel B.). This increase may be due to weak binding at an allosteric site that is not inhibitory the enzyme.

[5] = tested on: rat hind limb muscle (sciatic nerve denervation); settings: for % loss (muscle atrophy due to denervation): rat
Method: Denervation was carried out on one of the hind limb sciatic nerves of the rat. Denervation was allowed to proceed for 7 days. Either leupeptin or CLA was injected 2×/day in forelimb muscle for seven days. The non-denervated hind limb was used as the control. Leupeptin and/or CLA were injected into alternating forelimb muscles for a period of seven days after which, animals were sacrificed, muscles excised and weighed.

mdx mice = settings: for Myofiber diameter (Gastrocnemis) / Myofiber diameter, Diaphragm: injected parenterally daily from one to two months
Method: CLA was injected parenterally daily at the indicated concentrations into mdx mice from one to two months. Mdx control mice were injected with saline alone. At two months, the animals were sacrificed and indicated muscles removed, fixed, and stained for myofiber diameter analysis.

calpain [6] = settings: RD muscle cells
Source text: This study was designed to measure the effect of CLA, a calpain inhibitor, upon calpain activity inside living muscle cells. […] Full length alpha-II spectrin has a molecular weight of approximately 250 kilodaltons; upon cleavage by calpain, calpain-specific spectrin breakdown products with molecular weights of approximately 150 and 145 kilodaltons, respectively, are generated sequentially. Human RD muscle cells are a rhabdomyosarcoma muscle cell line that expresses OCTN2, a transporter for carnitine. By monitoring the reduction in spectrin breakdown products caused by calpain inhibition in RD muscle cells, it is possible to measure the potency of inhibitors according to the extent to which they reduce the appearance of calpain-specific spectrin breakdown products.
In the experiment, Rd muscle cells were incubated with either CLA or leupeptin for 1 hour. 1 nM maitotoxin was added to the cells to stimulate calcium influx and calpain activation. The cells were incubated for another 60 minutes. The cells were then lysed in phosphate buffer containing 1% Triton X-100 and a protease inhibitor cocktail. The lysed samples were centrifuged and the supernatants were collected. The protein concentration in each supernatant was measured using a standard assay. 20 micrograms of each sample was electrophoresed on a 4% Tris-glycine polyacrylamide gel. […]

[7] = rats, various doses
calpain [8] = settings: rats, IP, muscle isolated after 2 hours
Method: An initial series of toxicology experiments was performed in rats to assess the effect of CLA at various doses, on animal viability. […] A series of experiments to examine the ability of CLA vs. leupeptin to decrease activated calpain levels and inhibit muscle wasting was conducted. In the experiment shown in Table 4, rats were utilized to assess the effect of IP injection of either leupeptin or CLA into the hind limb muscle on their ability to inhibit calpain activity. To this end, four rats were injected IP with either leupeptin or CLA. After 2 hours, the muscle was isolated, homogenized, and assayed for remaining calpain activity by the standard assay.

[9] = rats
Method: In a pilot toxicology study, two groups of 2 male and 2 female Sprague-dawley rats each were administered intravenous bolus doses of 250 and 500 mg/kg CLA. […] In a larger, follow-up study (Table 11), Sprague-Dawley rats were administered several lower doses of CLA intravenously at 7-8 weeks of age. The rats were divided into 4 groups consisting of equal numbers of male and female rats. […] The vehicle consisted of Dulbecco's phosphate-buffered saline.

[10] = rat left gastrocnemius, 2 hours after oral 50 mg/kg CLA acetal acetate salt
[11] = rat right gastrocnemius, 6 hours after oral 50 mg/kg CLA acetal acetate salt
[12] = rat right gastrocnemius, 8 hours after oral 50 mg/kg CLA acetal acetate salt, one line per rat, 50 mg/kg
[13] = 45 minutes after single oral gavage of 50 mg/kg CLA acetal acetate salt, single rat

Sequence of porcine kidney calpain 2 (P04574 whole entry): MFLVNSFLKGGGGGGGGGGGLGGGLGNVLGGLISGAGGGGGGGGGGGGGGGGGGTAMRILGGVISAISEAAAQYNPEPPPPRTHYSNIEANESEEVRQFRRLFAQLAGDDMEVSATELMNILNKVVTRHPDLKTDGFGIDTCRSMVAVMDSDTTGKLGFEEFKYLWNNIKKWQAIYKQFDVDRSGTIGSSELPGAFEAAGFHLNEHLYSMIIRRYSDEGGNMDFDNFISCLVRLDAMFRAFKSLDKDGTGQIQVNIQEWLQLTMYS
Sequence of porcine kidney calpain 2 (I3LQD3 entry or part of it): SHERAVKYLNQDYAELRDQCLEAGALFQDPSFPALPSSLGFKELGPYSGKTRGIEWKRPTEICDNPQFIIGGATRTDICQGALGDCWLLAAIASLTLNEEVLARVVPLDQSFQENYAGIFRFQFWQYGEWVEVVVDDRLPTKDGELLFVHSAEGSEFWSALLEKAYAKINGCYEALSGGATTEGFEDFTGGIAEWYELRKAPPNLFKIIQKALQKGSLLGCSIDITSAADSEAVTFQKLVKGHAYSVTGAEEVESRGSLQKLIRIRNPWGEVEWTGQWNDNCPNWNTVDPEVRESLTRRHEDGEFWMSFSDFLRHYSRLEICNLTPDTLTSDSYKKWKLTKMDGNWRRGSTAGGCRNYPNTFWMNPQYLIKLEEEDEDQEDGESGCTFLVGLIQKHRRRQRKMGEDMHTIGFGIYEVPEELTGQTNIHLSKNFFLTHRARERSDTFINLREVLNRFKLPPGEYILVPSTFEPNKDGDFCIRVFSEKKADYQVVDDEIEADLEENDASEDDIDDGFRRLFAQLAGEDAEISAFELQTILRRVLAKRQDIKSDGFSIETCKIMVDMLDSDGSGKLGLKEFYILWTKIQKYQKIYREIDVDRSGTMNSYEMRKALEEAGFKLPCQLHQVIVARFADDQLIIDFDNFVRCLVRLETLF

CC(=O)O.CCOC(OCC)[C@H](CCCNC(=N)N)NC(=O)[C@H](CC(C)C)NC(=O)CCC(=O)N[C@H](CC(=O)[O-])C[N+](C)(C)C [CLA acetal, aminocarnityl-succinyl-leucyl-argininal diethyl acetal]
Percent acetal remaining ([1]; pH = 0, room temperature, activation time 0 min): 100.0%
Percent acetal remaining ([1]; pH = 0, room temperature, activation time 5 min): 80.0%
Percent acetal remaining ([1]; pH = 0, room temperature, activation time 15 min): 28.5%
Percent acetal remaining ([1]; pH = 0, room temperature, activation time 30 min): 11.2%
Percent acetal remaining ([1]; pH = 0, room temperature, activation time 45 min): 11.3%
Percent acetal remaining ([1]; pH = 0, room temperature, activation time 60 min): 11.3%
Percent acetal remaining ([1]; pH = 0, room temperature, activation time 90 min): 9.0%
Percent acetal remaining ([1]; pH = 0, room temperature, activation time 120 min): 10.9%
Percent acetal remaining ([1]; pH = 0, room temperature, activation time 240 min): 9.3%
Percent acetal remaining ([1]; pH = 0, room temperature, activation time 1440 min): 9.1%
Percent acetal remaining ([1]; pH = 1.0, room temperature, activation time 0 min): 100.0%
Percent acetal remaining ([1]; pH = 1.0, room temperature, activation time 5 min): 100.6%
Percent acetal remaining ([1]; pH = 1.0, room temperature, activation time 15 min): 97.3%
Percent acetal remaining ([1]; pH = 1.0, room temperature, activation time 30 min): 92.2%
Percent acetal remaining ([1]; pH = 1.0, room temperature, activation time 45 min): 86.9%
Percent acetal remaining ([1]; pH = 1.0, room temperature, activation time 60 min): 81.7%
Percent acetal remaining ([1]; pH = 1.0, room temperature, activation time 90 min): 72.7%
Percent acetal remaining ([1]; pH = 1.0, room temperature, activation time 120 min): 64.8%
Percent acetal remaining ([1]; pH = 1.0, room temperature, activation time 240 min): 42.2%
Percent acetal remaining ([1]; pH = 1.0, room temperature, activation time 1440 min): 6.4%
toxicity after single oral dose [2]: No evidence of toxicity
Muscle concentration of prodrug [3, 10]: 37.4 ng per gram
Muscle concentration of prodrug [3, 11]: 9.7 ng per gram
Muscle concentration of prodrug [3, 12]: 10.3 ng per gram and 9.2 ng per gram
Estimated Plasma Concentration of CLA acetal [4, 13]: 5,840 ng/mL
Estimated Plasma Concentration of CLA acetal ([4]; 60 minutes after single oral gavage of 50 mg/kg CLA acetal acetate salt, one line per rat, 50 mg/kg): 970 ng/mL and 8240 ng/mL and 51200 ng/mL
oral absorption ([4]; rats, 50 mg/kg oral gavage): absorbed intact

CC(C)CC(NC(=O)CCC(=O)NC(CC(=O)[O-])C[N+](C)(C)C)C(=O)NC(C=O)CCCNC(=N)N [D-isomer]
IC50 (porcine kidney calpain 2; FIG. 7 Panel B): > 100 µM

CC(C)C[C@H](NC(=O)CCC(=O)N[C@H](CC(=O)O)C[N+](C)(C)C)C(=O)N[C@H](C=O)CCCNC(=N)N.Cl.[Cl-] [CLA, aminocarnityl-succinyl-leucyl-argininal]
% loss (muscle atrophy due to denervation) ([5]; 1.0 mg/kg injected 2x/day for seven days): 5.2 ± 1%
% loss (muscle atrophy due to denervation) ([5]; 3.0 mg/kg injected 2x/day for seven days): <1.0%
% loss (muscle atrophy due to denervation) ([5]; 6.0 mg/kg injected 2x/day for seven days): <1.0%
health / toxic effect in denervation study ([5]; rats, seven days of injections): remained healthy without any apparent negative toxic effect
Myofiber diameter (Gastrocnemis) (mdx mice; 5 mg): 28.7 ± 7 mm
Myofiber diameter, Diaphragm (mdx mice; 5 mg): 25.1 ± 7.3 mm
Myofiber diameter (Gastrocnemis) (mdx mice; 10 mg): 30.6 ± 11 mm
Myofiber diameter, Diaphragm (mdx mice; 10 mg): 25.4 ± 7.3 mm
effectiveness relative to leupeptin alone (mdx mice; retention of muscle size): at least five to seven times more effective
fold lower IC50 than leupeptin (calpain [6]): approximately 200 fold
toxic effect on animal viability [7]: No toxic effect
% inhibition of muscle calpain activity (calpain [8]; 14 μmoles): 48%
% inhibition/μmole (calpain [8]): 3.5%
Fold (effectiveness per μmole relative to leupeptin) (calpain [8]): 13.5
Muscle concentration of active drug [3, 10]: 124.6 ng per gram
Percent of drug present as the active form [3, 10]: 76.9%
Muscle concentration of active drug [3, 11]: 683.6 ng per gram
Percent of drug present as the active form [3, 11]: 98.6%
Muscle concentration of active drug [3, 12]: 758.4 ng per gram and 330.8 ng per gram
Percent of drug present as the active form [3, 12]: 98.7% and 97.3%
lethality ([9]; intravenous bolus, 500 mg/kg): lethal
maximum tolerated dose ([9]; single intravenous dose): 200 mg/kg
no adverse effect limit (NOAEL) ([9]; single intravenous dose): 100 mg/kg
toxicity ([9]; single intravenous dose, 50 and 100 mg/kg): No toxicity
Estimated Plasma Concentration of CLA aldehyde [4, 13]: <20 ng/mL
Estimated Plasma Concentration of CLA aldehyde ([4]; 60 minutes after single oral gavage of 50 mg/kg CLA acetal acetate salt, one line per rat, listed as CLA aldehyde, 50 mg/kg): <20 ng/mL (2×) and 72 ng/mL

CC(C)CC(NC(=O)CCC(=O)NC(CC(=O)[O-])C[N+](C)(C)C)C(=O)NC(C=O)CCCNC(=N)N [L-isomer of CLA]
IC50 (porcine kidney calpain 2; FIG. 7 Panel A): 0.5 to 1 µM
